Here are results for two substances from PMC4286281, “Profiling of the Tox21 Chemical Collection for Mitochondrial Function to Identify Compounds that Acutely Decrease Mitochondrial Membrane Potential” (Environmental Health Perspectives, 2014).

This test deals with mitochondrial membrane potential (MMP) in HepG2 cells. As to the kind of experiment: qHTS mitochondrial membrane potential (MMP) assay with m-MPI dye, multiplexed with CellTiter-Glo cell viability. The format is cell-based, human. Background: In qHTS, concentration-response curves come from the screen itself.

Take Methyl violet: the Efficacy was determined as 121.5%. In addition, the “Potency rank in the MMP screen” value (HepG2 cells, 1 hr treatment) was “among the most potent compounds”. Moreover, the IC50 (read-out: Potency) worked out at 65.3 nM.
As to plicamycin [reference compound], the “MMP assay activity outcome (active antagonist / inactive / inconclusive)” value (HepG2 cells, 1 hr treatment, call from triplicate runs, multichannel readout and cell viability) is listed as “active”.
